Earlier results as cited in patent US10543184B2, “Method to treat functional somatic syndromes with combination of aciclovir and celecoxib” (INNOVATIVE MED CONCEPTS, LLC, priority 2012, dated 2020).

System: fibromyalgia patients
Conditions: Kendall et al., J. Rheumatology (2004) 31, 783-784

CC(C)[C@H](N)C(=O)OCCOCn1cnc2c(=O)[nH]c(N)nc21 [valacyclovir]
Outcome of treating fibromyalgia patients: not successful
